Measurements taken from patent US20220298138A1, “ENZYME INHIBITORS” (KALVISTA PHARMACEUTICALS LIMITED, priority 2019, published 2022).
pIC50: −log10 of the molar value.

Key:
Human Factor XIIa = biological target: T1, Human Factor XIIa (Homo sapiens, UniProt P00748); test: Factor XIIa inhibitory activity in vitro (fluorogenic substrate H-DPro-Phe-Arg-AFC); type: biochemical; details: 25° C., class symbols, read-out: Human FXIIa IC50
T1 construct: purchased Enzyme Research Laboratories
T1 sequence (P00748 373-615 limits assumed): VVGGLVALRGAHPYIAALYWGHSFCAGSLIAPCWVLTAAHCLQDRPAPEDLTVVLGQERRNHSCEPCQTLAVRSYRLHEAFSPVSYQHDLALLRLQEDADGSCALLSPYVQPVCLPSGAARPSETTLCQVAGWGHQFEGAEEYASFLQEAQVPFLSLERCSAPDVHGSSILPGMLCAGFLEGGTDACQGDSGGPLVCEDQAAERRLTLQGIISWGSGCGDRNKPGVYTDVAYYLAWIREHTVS
Procedure, shortened: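 Enzyme incubated at 25° C with fluorogenic substrate H-DPro-Phe-Arg-AFC and a range of compound concentrations. Residual activity taken as initial reaction rate from […], giving IC50.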

Human FXIa = biological target: T2, Human FXIa (Homo sapiens, UniProt P03951); test: FXIa inhibitory activity in vitro (fluorogenic substrate Z-Gly-Pro-Arg-AFC), selectivity; type: biochemical; details: 25° C.
T2 construct: Human FXIa (Enzyme Research Laboratories) was incubated; purchased Enzyme Research Laboratories
Experimental: Determination of the % Inhibition for FXIa
Human FXIa (Enzyme Research Laboratories) was incubated at 25° C. with the fluorogenic substrate Z-Gly-Pro-Arg-AFC and various concentrations of the test compound. Residual enzyme activity (initial rate of reaction) was determined by measuring the change in fluorescence at 410 nm and the IC50 value for the test compound was determined.

[1] = numeric bound printed instead of category

T2 sequence (P03951 388-625 limits assumed): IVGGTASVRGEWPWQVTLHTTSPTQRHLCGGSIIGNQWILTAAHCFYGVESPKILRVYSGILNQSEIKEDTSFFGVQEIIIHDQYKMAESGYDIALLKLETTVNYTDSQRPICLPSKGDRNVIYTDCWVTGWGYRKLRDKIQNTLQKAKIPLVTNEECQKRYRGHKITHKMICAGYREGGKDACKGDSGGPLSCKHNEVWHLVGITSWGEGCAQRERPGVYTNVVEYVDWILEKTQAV
T2 sequence (P03951 19-387 partner limits assumed): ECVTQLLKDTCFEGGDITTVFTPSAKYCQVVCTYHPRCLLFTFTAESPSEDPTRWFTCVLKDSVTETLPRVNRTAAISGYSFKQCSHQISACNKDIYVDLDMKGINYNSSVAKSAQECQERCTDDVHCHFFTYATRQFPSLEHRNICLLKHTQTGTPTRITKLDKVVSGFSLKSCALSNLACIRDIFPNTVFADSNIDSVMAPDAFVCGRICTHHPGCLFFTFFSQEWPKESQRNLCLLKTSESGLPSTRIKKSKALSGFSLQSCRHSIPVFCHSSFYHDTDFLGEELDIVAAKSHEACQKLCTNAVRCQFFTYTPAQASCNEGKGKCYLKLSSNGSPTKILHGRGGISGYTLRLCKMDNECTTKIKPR

Q: How did the pIC50 (Human Factor XIIa) turn out when `C[C@H](NC(=O)[C@H]1Cc2ccccc2CN1)C(=O)NCc1ccc2c(N)nccc2c1` [Example 45.04] was run?
A: 4.40 to 5.00

Q: And the pIC50 (Human FXIa; category scale)?
A: 5.00 to 5.52

Q: With `C[C@H](NC(=O)[C@@H]1NCc2ccccc21)C(=O)NCc1ccc2c(N)nccc2c1` [Example 45.05] as the compound, how does the pIC50 (Human Factor XIIa) read?
A: 4.40 to 5.00

Q: And the pIC50 (Human FXIa; category scale)?
A: < 4.40

Q: With `Nc1nccc2cc(CNC(=O)C3(NC(=O)[C@H](N)CCc4ccccc4)CC3)ccc12` [Example 54.01] as the compound, how does the pIC50 (Human Factor XIIa) read?
A: 6.00 to 6.55

Q: And the pIC50 (Human FXIa; category scale)?
A: < 4.40

Q: Which results are given for `Nc1nccc2cc(CNC(=O)C3(NC(=O)[C@H](N)CCc4ccccc4)CCC3)ccc12` [Example 54.02]?
A: pIC50 (Human Factor XIIa): 5.52 to 6.00; pIC50 (Human FXIa; category scale): 4.40 to 5.00

Q: `Nc1nccc2cc(CNC(=O)C3(NC(=O)[C@H](N)CCc4ccccc4)CCOCC3)ccc12` [Example 54.03] was tested. Which pIC50 (Human Factor XIIa) did it give?
A: 5.00 to 5.52

Q: What about the pIC50 (Human FXIa; category scale) of the same compound?
A: < 4.40

Q: Which results are given for `CC(C)N[C@H](CCc1ccccc1)C(=O)N(C)[C@@H](C)C(=O)NCc1ccc2c(N)nccc2c1` [Example 65.01]?
A: pIC50 (Human Factor XIIa): 6.00 to 6.55; pIC50 (Human FXIa; category scale): 5.00 to 5.52

Q: What does the source list for `C[C@@H](C(=O)NCc1ccc2c(N)nccc2c1)N(C)C(=O)[C@H](N)CCc1ccccc1` [Example 65.02]?
A: pIC50 (Human Factor XIIa): 5.52 to 6.00; pIC50 (Human FXIa; category scale): < 4.40

Q: Which results are given for `N=C(N)c1ccc(CNC(=O)[C@H](Cc2cccc3ccccc23)NC(=O)[C@H]2CCCN2)cc1` [Example 71.01]?
A: pIC50 (Human Factor XIIa): 6.55 to 7.00; pIC50 (Human FXIa; [1]): < 5.00

Q: `N=C(N)c1ccc(CNC(=O)[C@H](Cc2cccc3ccccc23)NC(=O)c2ccccn2)cc1` [Example 71.02] was tested. Which pIC50 (Human Factor XIIa) did it give?
A: 5.52 to 6.00

Q: What about the pIC50 (Human FXIa; [1]) of the same compound?
A: < 5.00

Q: How did the pIC50 (Human Factor XIIa) turn out when `CCC(C)[C@@H](N)C(=O)N[C@H](CC1CCCC2CCCCC21)C(=O)NCc1ccc(C(=N)N)s1` (stereo partly drawn) [Example 71.03] was run?
A: 5.52 to 6.00

Q: And the pIC50 (Human FXIa; category scale)?
A: 5.52 to 6.00

Q: With `CC(C)[C@H](N)C(=O)N[C@H](CC1CCCC2CCCCC21)C(=O)NCc1ccc(C(=N)N)s1` (stereo partly drawn) [Example 71.04] as the compound, how does the pIC50 (Human Factor XIIa) read?
A: 5.52 to 6.00

Q: And the pIC50 (Human FXIa; category scale)?
A: 5.00 to 5.52

Q: `N=C(N)c1ccc(CNC(=O)[C@H](Cc2ccccc2)NC(=O)[C@@H](CC2CCCCC2)NCC(=O)O)cc1` [Example 71.05] was tested. Which pIC50 (Human Factor XIIa) did it give?
A: 5.00 to 5.52

Q: What about the pIC50 (Human FXIa; category scale) of the same compound?
A: 6.00 to 6.52
